Like-named read-outs stand apart in the source and are kept apart here.
How the values were obtained:
[1] = system: peripheral blood mononuclear cells (PBMCs) from AMD patients; conditions: for immunostimulatory activity on PBMCs: peptide 20 μg/ml
Method: (§1) Accordingly, peripheral blood mononuclear cells of AMD patients were tested to determine whether they would manifest the same type of responses to various synthetic peptides as blood cells from uveitis patients did in an earlier study. See deSmet et al. (2001) Investigative Ophthalmology & Visual Science 42(13):3233-38.
(§2) The cell preparation and assay procedures used in these experiments were essentially as described in DeSmet et al. 2001. In brief, mononuclear lymphocytes were separated on isolymph gradient (Gallard-Schlesinger, Carle Place, N.Y.) from heparinized blood shortly after the sample was obtained. Cells were resuspended in RMPI 1640 with HEPES (Gibco, Grand Island, N.Y.), supplemented with glutamine (2 mM), Penicillin (100 U/ml), streptomycin (100 μg/ml), and 10% commercial heat-inactivated human AB serum (Biocell Laboratories, Carson, Calif.). These cells were immediately placed in culture at a density of 5×10^5 cells/well in the presence of a test peptide at a concentration of 20 μg/ml (or no peptide control), in flat-bottomed, 96-well plates (Costar, Cambridge, Mass.). All assays were plated in triplicate. Peptides were tested simultaneously. For control of immune reactivity, purified protein derivative (PPD; Parke-Davis, Morris Plains, N.J.) and purified phytohemagglutinin (PHA; Murex Diagnostics, Dartford, UK) were also tested. For the last 12 hours before harvesting at day 5, each well was pulsed with [3H]thymidine (2 Ci/mmol, 0.5 μCi per 10 μl/well; New England Nuclear, Boston, Mass.).

[2] = system: blood cells from uveitis patients; conditions: previously found (Wildner and Thurau 1994; Thurau et al. 1997); cited from earlier work
[3] = system: PBMCs from control subjects without AMD
Method: as §1, §2

[4] = AMD patients with large drusen (late stage)
[5] = early stage AMD patients with small drusen
[6] = patients with wet AMD (advanced AMD with CNV), day 5

Substance | immunostimulatory activity on PBMCs [1, 4] | immunostimulatory activity on PBMCs [1, 5] | immunostimulatory in uveitis patients [2] | immunostimulatory activity on PBMCs [1, 6] | other results
LPLLA NNRER RGIAL [Peptide 29] | higher average reactivity than Peptide 23 | most reactive |  |  | 
ALNED LSSWT AADT [Peptide B27PD, reference compound] | varying levels of responses |  | immunostimulatory | elicit immunoreactive responses | 
FLGEL TSSEV ATEV [PDS-Ag, reference compound] | varying levels of responses |  | immunostimulatory | elicit immunoreactive responses | 
DTNLA SSTII KEGID [Peptide 31] | higher average reactivity than Peptide 23 | most reactive |  |  | 
VTVDVTNNTEKTVKK [Peptide 23] |  |  |  |  | immunostimulatory activity on PBMCs ([3]; control subjects without AMD, peptide 20 μg/ml): little if any stimulation; frequency of induced immunostimulatory response ([1]; AMD patients with large drusen, FIG. 3, comparison of the three agents): more frequently induced an immunostimulatory response than PDS-Ag or B27PD
GEPIPVTVDVTNNTEKTVKK |  |  |  |  | response from responder T-cells ([3]; healthy individuals): does not elicit a response; response from responder T-cells ([1]; AMD patients, FIG. 1): elicits a response
